Source: patent publication US10941157B2, “Pesticidal compositions and uses thereof” (Gilead Apollo, LLC, priority 2015, dated 2021)
In brackets after ≈: the same amount, converted by molar mass. Read-outs that look alike come from different tables or passages of the source.

Assays:
Diplodia maydis (Dm) = experiment: In vitro pathogen growth inhibition assay, Dm; format: cell-based; settings: Stenocarpella maydis, 48 h
Outline: (§1)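 Spores in 17% V8 liquid medium, or 1.5 mm Rs mycelial plugs in ¼ PDB, incubated with compound; final concentration checked by OD600 for precipitation. OD readings at 24 and 48 h, blank-subtracted, plus visual ratings; value is concentration giving ≥90% growth inhibition.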

[1] = system: Fusarium virguliforme (Fv); experiment: In vitro pathogen growth inhibition assay, Fv; format: cell-based
Outline: as §1

Septoria tritici (St) = experiment: In vitro pathogen growth inhibition assay, St; format: cell-based; settings: Zymoseptoria tritici, 48 h
Outline: (§2)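 Value reported is the compound concentration reaching ≥90% growth inhibition, from OD readings at 24 and 48 h after blank subtraction, confirmed visually. Inoculum was spores diluted in 17% V8 medium, except Rs, using 1.5 mm mycelial plugs in ¼ PDB; actual compound concentration corrected via OD600.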

[2] = system: Phytophthora capsici (Pc); experiment: In vitro pathogen growth inhibition assay, Pc; format: cell-based; settings: 48 h
Outline: as §1

Rhizoctonia solani (Rs) = experiment: In vitro pathogen growth inhibition assay, Rs (mycelial plugs); format: cell-based; settings: Rhizoctonia solani, 48 h, mycelial plugs
Outline: as §1

[3] = system: Fusarium moniliforme (Fm); experiment: In vitro pathogen growth inhibition assay, Fm; format: cell-based; settings: Fusarium verticillioides
Outline: as §2

Botrtyis cinerea (Bc) = experiment: In vitro pathogen growth inhibition assay, Bc; format: cell-based; settings: 48 h
Outline: as §2

[4] = system: Collectotrichum graminicola (Cg); experiment: In vitro pathogen growth inhibition assay, Cg; format: cell-based; settings: 48 h
Outline: as §2

[5] = system: Saccharomyces cerevisiae (Sc); experiment: Yeast growth inhibition assay; format: cell-based; settings: Saccharomyces cerevisiae, ≥75% inhibition, read-out: Compound Concentration (ppm) sufficient for ≥75% inhibition, Sc
Procedure: Both tables list the concentration of each compound that was sufficient to ≥90% inhibition of growth for each of the fungal pathogens listed above. In addition, some of compounds were tested in a yeast growth inhibition assay for Saccharomyces cerevisiae (Sc). Table 2 lists the concentration of the tested compound that was sufficient to ≥75% inhibition of Saccharomyces cerevisiae (Sc).

[6] = system: Mycosphaerella graminicola (synthetic Septoria tritici); experiment: Foliar protection test for wheat septoria leaf blotch control; format: in vivo; settings: foliar spray on Triticum aestivum cv. WinterHawk, inoculated 1 hour after treatment, evaluated 16 days later
Phakopsora pachyrhizi = experiment: Foliar protection test for Asian soybean rust control; format: in vivo; settings: foliar application to soybean (Glycine max AG4832), percent disease area evaluated 14 days later
Puccinia triticina = experiment: Foliar protection test for wheat leaf rust control; format: in vivo; settings: foliar application to wheat (Triticum aestivum cv. Winterhawk), evaluated 10 days later
Sphaerotheca fuliginea = experiment: Foliar protection for cucumber powdery mildew control; format: in vivo; settings: foliar spray on Cucumis sativus cv. Straight Eight, inoculated 24 hours after treatment, evaluated 7 days later
Outline: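 Protective foliar spray on 10-day-old Straight Eight cucumbers, with S. fuliginea spores dusted from infected stock plants 24 h after treatment. Disease developed at 23–27 °C, 60% RH and a 16 h photoperiod. Leaves were rated for mildew growth after 7 days; test rates 10 ppm or below.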

Fusarium graminearum = format: in vivo; settings: spray on flowering Triticum aestivum cv. Samson, inoculated 24 hours after treatment, evaluated 14 days later
[7] = system: Blumeria graminis f. sp. hordei; experiment: Foliar protection test for barley powdery mildew control; format: in vivo; settings: foliar spray on Hordeum vulgare cv. Perry, inoculated 24 hours after treatment, evaluated 7 days later
Outline: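 Protective foliar test: compound atomized onto both leaf surfaces of 6-day-old Hordeum vulgare cv. Perry, followed after 24 h by spore-cloud inoculation from colonized untreated plants. Disease rated on leaves 7 days on, plants held at 20 to 22° C and 70% RH.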

[8] = ≥90% inhibition, 48 hours vs 2% DMSO control, read-out: Compound Concentration (ppm) sufficient for ≥90% inhibition of growth, Dm
[9] = ≥90% inhibition, 48 hours vs 2% DMSO control, read-out: Compound Concentration (ppm) sufficient for ≥90% inhibition of growth, Fv
[10] = ≥90% inhibition, 48 hours vs 2% DMSO control, read-out: Compound Concentration (ppm) sufficient for ≥90% inhibition of growth, St
[11] = ≥90% inhibition, 48 hours vs 2% DMSO control, read-out: Compound Concentration (ppm) sufficient for ≥90% inhibition of growth, Pc
[12] = ≥90% inhibition, 48 hours vs 2% DMSO control, read-out: Compound Concentration (ppm) sufficient for ≥90% inhibition of growth, Rs
[13] = ≥90% inhibition, 48 hours vs 2% DMSO control, read-out: Compound Concentration (ppm) sufficient for ≥90% inhibition of growth, Fm
[14] = ≥90% inhibition, 48 hours vs 2% DMSO control, read-out: Compound Concentration (ppm) sufficient for ≥90% inhibition of growth, Bc
[15] = ≥90% inhibition, 48 hours vs 2% DMSO control, read-out: Compound Concentration (ppm) sufficient for ≥90% inhibition of growth, Cg

Row | SMILES | IC90 (Diplodia maydis (Dm); [8]) | IC90 [1, 9] | IC90 (Septoria tritici (St); [10]) | IC90 [2, 11] | IC90 (Rhizoctonia solani (Rs); [12]) | IC90 [3, 13] | IC90 (Botrtyis cinerea (Bc); [14]) | IC90 [4, 15] | IC75 [5] | further results
1 | COc1ccccc1[C@H](Cn1c(=O)n(C(C)(C)C(=O)NC(C)C)c(=O)c2c(C)c(-c3ncco3)sc21)OC(C)C [Compound I-001] | 2 µg/mL (≈ 3.52 µM) | 0.4 µg/mL (≈ 0.703 µM) | > 10 µg/mL | > 50 µg/mL | 50 µg/mL (≈ 87.9 µM) | 0.08 µg/mL (≈ 0.141 µM) | ≥ 0.4 µg/mL | ≥ 2 µg/mL | 1.2 µg/mL (≈ 2.11 µM) | 
2 | COc1ccccc1[C@H](Cn1c(=O)n(C(C)(C)C(=O)N2CCCCC2)c(=O)c2c(C)c(-c3ncco3)sc21)OC1CCOCC1 [Compound I-004] | 2 µg/mL (≈ 3.14 µM) | 2 µg/mL (≈ 3.14 µM) | > 10 µg/mL | > 50 µg/mL | 10 µg/mL (≈ 15.7 µM) | 0.08 µg/mL (≈ 0.126 µM) | 0.4 µg/mL (≈ 0.628 µM) | 2 µg/mL (≈ 3.14 µM) | 3.7 µg/mL (≈ 5.81 µM) | 
3 | COc1ccccc1[C@H](Cn1c(=O)n(C(C)(C)C(=O)N2CCCC2)c(=O)c2c(C)c(-c3ncco3)sc21)OC1CCOCC1 [Compound I-005] | 2 µg/mL (≈ 3.21 µM) | 2 µg/mL (≈ 3.21 µM) | > 10 µg/mL | > 50 µg/mL | 0.4 µg/mL (≈ 0.642 µM) | 0.08 µg/mL (≈ 0.128 µM) | 2 µg/mL (≈ 3.21 µM) | 2 µg/mL (≈ 3.21 µM) | 0.4 µg/mL (≈ 0.642 µM) | 
4 | CCOC(=O)c1sc2c(c1C)c(=O)n(C(C)(C)C(=O)N1CCCCC1)c(=O)n2C[C@H](OC(C)C)c1ccccc1OC [Compound I-006] | 0.4 µg/mL (≈ 0.667 µM) | 0.4 µg/mL (≈ 0.667 µM) | ≥ 2 µg/mL | > 50 µg/mL | 0.4 µg/mL (≈ 0.667 µM) | 0.08 µg/mL (≈ 0.133 µM) | 0.4 µg/mL (≈ 0.667 µM) | 0.4 µg/mL (≈ 0.667 µM) | 1.2 µg/mL (≈ 2 µM) | 
5 | CCOC(=O)c1sc2c(c1C)c(=O)n(C(C)(C)C(=O)N1CCCC1)c(=O)n2C[C@H](OC(C)C)c1ccccc1OC [Compound I-007] | 0.4 µg/mL (≈ 0.683 µM) | 0.4 µg/mL (≈ 0.683 µM) | ≥ 2 µg/mL | > 50 µg/mL | 0.08 µg/mL (≈ 0.137 µM) | 0.08 µg/mL (≈ 0.137 µM) | 0.4 µg/mL (≈ 0.683 µM) | 0.4 µg/mL (≈ 0.683 µM) | 0.4 µg/mL (≈ 0.683 µM) | 
6 | CCOC(=O)c1sc2c(c1C)c(=O)n(C(C)(C)C(=O)NC(C)C)c(=O)n2C[C@H](OC1CCOCC1)c1ccccc1OC [Compound I-008] | 2 µg/mL (≈ 3.25 µM) | 2 µg/mL (≈ 3.25 µM) | > 10 µg/mL | > 50 µg/mL | 10 µg/mL (≈ 16.2 µM) | 0.08 µg/mL (≈ 0.13 µM) | 0.4 µg/mL (≈ 0.65 µM) | 2 µg/mL (≈ 3.25 µM) | 3.7 µg/mL (≈ 6.01 µM) | 
7 | CCOC(=O)c1sc2c(c1C)c(=O)n(C(C)(C)C(=O)NC(C)C)c(=O)n2C[C@H](OC(C)C)c1ccccc1OC [Compound I-009] | 0.4 µg/mL (≈ 0.697 µM) | 0.4 µg/mL (≈ 0.697 µM) | > 50 µg/mL | > 50 µg/mL | 10 µg/mL (≈ 17.4 µM) | 0.08 µg/mL (≈ 0.139 µM) | 0.4 µg/mL (≈ 0.697 µM) | 2 µg/mL (≈ 3.49 µM) | 3.7 µg/mL (≈ 6.45 µM) | 
8 | CCNC(=O)C(C)(C)n1c(=O)c2c(C)c(-c3ncco3)sc2n(C[C@H](O[C@H]2CC[C@@H](O)CC2)c2ccccc2OC)c1=O [Compound I-010] | ≥ 2 µg/mL | 2 µg/mL (≈ 3.27 µM) | > 50 µg/mL | > 50 µg/mL | 50 µg/mL (≈ 81.9 µM) | 0.08 µg/mL (≈ 0.131 µM) | 0.4 µg/mL (≈ 0.655 µM) | 50 µg/mL (≈ 81.9 µM) | 0.4 µg/mL (≈ 0.655 µM) | 
9 | COc1ccccc1[C@H](Cn1c(=O)n(C(C)(C)C(=O)NC(C)C)c(=O)c2c(C)c(-c3ncco3)sc21)OC1CCOCC1 [Compound I-011] | 2 µg/mL (≈ 3.27 µM) | 2 µg/mL (≈ 3.27 µM) | 50 µg/mL (≈ 81.9 µM) | > 50 µg/mL | 10 µg/mL (≈ 16.4 µM) | 0.08 µg/mL (≈ 0.131 µM) | 0.4 µg/mL (≈ 0.655 µM) | 2 µg/mL (≈ 3.27 µM) | 1.2 µg/mL (≈ 1.96 µM) | 
10 | COc1ccccc1[C@H](Cn1c(=O)n(C(C)(C)C(=O)NC(C)C)c(=O)c2c(C)c(-c3ncco3)sc21)O[C@H]1CC[C@@H](O)CC1 [Compound I-012] | 2 µg/mL (≈ 3.2 µM) | 2 µg/mL (≈ 3.2 µM) | ≥ 10 µg/mL | > 50 µg/mL | 50 µg/mL (≈ 80 µM) | 0.08 µg/mL (≈ 0.128 µM) | 0.4 µg/mL (≈ 0.64 µM) | 10 µg/mL (≈ 16 µM) | 0.14 µg/mL (≈ 0.224 µM) | 
11 | COc1ccc(F)cc1[C@H](Cn1c(=O)n(C(C)(C)C(=O)NC(C)C)c(=O)c2c(C)c(-n3nccn3)sc21)OC(C)=O [Compound I-323, (R)-1-(5-fluoro-2-methoxyphenyl)-2-(3-(1-(isopropylamino)-2-methyl-1-oxopropan-2-yl)-5-methyl-2,4-dioxo-6-(2H-1,2,3-triazol-2-yl)-3,4-dihydrothieno[2,3-d]pyrimidin-1(2H)-yl)ethyl acetate] |  |  |  |  |  |  |  |  |  | IC90 (Diplodia maydis (Dm); ≥90% growth inhibition, 48 hours, vs 2% DMSO control, read-out: Compound Concentration (ppm) sufficient for ≥90% inhibition of Dm): ≥ 0.4 µg/mL; Septoria Leaf Blotch Control at a compound concentration of 25 ppm or lower [6]: AA (≥85% control of wheat septoria leaf blotch); Asian Soybean Rust Control at a compound concentration of 25 ppm or lower (Phakopsora pachyrhizi): AA (≥85% control of Asian soybean rust); Wheat Leaf Rust Control at a compound concentration of 10 ppm or lower (Puccinia triticina): AA (≥85% control of wheat leaf rust); IC90 ([1]; ≥90% growth inhibition, 48 hours, vs 2% DMSO control, read-out: Compound Concentration (ppm) sufficient for ≥90% inhibition of Fv): 0.08 µg/mL; IC90 (Septoria tritici (St); ≥90% growth inhibition, 48 hours, vs 2% DMSO control, read-out: Compound Concentration (ppm) sufficient for ≥90% inhibition of St): > 50 µg/mL; IC90 ([2]; ≥90% growth inhibition, 48 hours, vs 2% DMSO control, read-out: Compound Concentration (ppm) sufficient for ≥90% inhibition of Pc): > 50 µg/mL; IC90 (Rhizoctonia solani (Rs); ≥90% growth inhibition, 48 hours, vs 2% DMSO control, read-out: Compound Concentration (ppm) sufficient for ≥90% inhibition of Rs): 0.08 µg/mL; Cucumber Powdery Mildew Control at a compound concentration of 10 ppm or lower (Sphaerotheca fuliginea): AA (≥85% control of cucumber powdery mildew); IC90 ([3]; ≥90% growth inhibition, 48 hours, vs 2% DMSO control, read-out: Compound Concentration (ppm) sufficient for ≥90% inhibition of Fm): 0.08 µg/mL; Wheat Fusarium Head Blight Control at a compound concentration of 25 ppm or lower (Fusarium graminearum): C (from 25 to 49% control of wheat fusarium head blight); IC90 (Botrtyis cinerea (Bc); ≥90% growth inhibition, 48 hours, vs 2% DMSO control, read-out: Compound Concentration (ppm) sufficient for ≥90% inhibition of Bc): 0.4 µg/mL; IC90 ([4]; ≥90% growth inhibition, 48 hours, vs 2% DMSO control, read-out: Compound Concentration (ppm) sufficient for ≥90% inhibition of Cg): 0.4 µg/mL; Barley Powdery Mildew Control at a compound concentration of 10 ppm or lower [7]: AA (≥85% control of barley powdery mildew)
